The test system of test [1] is 80S14 (p21-deficient) cells. The test can be described thus: Cytotoxicity assay using isogenic cell lines: IC50 in 80S14 (p21-deficient) cells, SRB. Particulars: Homo sapiens, 120 h; 80S14 (p21-deficient) cells, 5 days, SRB; class symbols; read-out: IC50 for 80S14. The format is cell-based, human. The method, boiled down: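 IC50 is the concentration halving proliferation relative to untreated controls, read from SRB absorbance (560 nm) after TCA fixation. Test agent dilutions (5 pM–50 μM or 170 pg/ml–10 μg/ml) were left on p21-deficient 80S14 cells (12,000/well, pre-incubated overnight) for 5 days at 37 °C.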

A further test has as its system LoVo Colon cell line. The test can be described thus: Cytotoxicity assay using LoVo colon cell line, SRB. It is filed as cell-based. The note with it: Homo sapiens, 96 h; Cellular activity in LoVo cell; 4 days incubation, SRB; read-out: Inhibition of LoVo. The method in brief:
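Growth inhibition read by sulforhodamine B after 4-day compound exposure at 37 °C. Colon LoVo cells plated at 4000 per well in RPMI/10% FBS a day earlier; doses ranged 5 pM-20 μM or 170 pg/ml-10 μg/ml. IC50 is the concentration halving proliferation versus untreated wells.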

Drawing on US20060063784A1, “Method of using substituted pyrazolo [1,5-a] pyrimidines” (priority 2004, published 2006), this text covers IC50 for 23 molecules.

Structures are written as SMILES.

`C=C(C)CNc1cccc(-c2ccnc3c(C(=O)c4cccs4)cnn23)c1` [Example 434, (7-{3-[(2-Methylprop-2-enyl)amino]phenyl}pyrazolo[1,5-a]pyrimidin-3-yl)(thien-2-yl)methanone]: the IC50 in test [1] was 1000 to 10000 nM; in the test with LoVo Colon cell line it was 100 to 1000 nM.

Turning to `C=C(CC)CNc1cccc(-c2ccnc3c(C(=O)c4cccs4)cnn23)c1` [Example 435, (7-{3-[(2-Ethylprop-2-enyl)amino]phenyl}pyrazolo[1,5-a]pyrimidin-3-yl)(thien-2-yl)methanone], the IC50 fell in the range of 1000 to 10000 nM in test [1] and 100 to 1000 nM with LoVo Colon cell line.

As to `O=C(c1cccs1)c1cnn2c(-c3cccc(NCC4CC=CCC4)c3)ccnc12` (stereo not shown) [Example 436, (7-{3-[(cyclohex-3-en-1-ylmethyl)amino]phenyl}pyrazolo[1,5-a]pyrimidin-3-yl)-(thien-2-yl)-methanone], the IC50 was less than 1000 nM in test [1] and less than 100 nM in the test with LoVo Colon cell line.

For the molecule `O=C(c1cccs1)c1cnn2c(-c3cccc(N4CCCC4=O)c3)ccnc12` [Example 437, 1-{3-[3-(Thien-2-ylcarbonyl)pyrazolo[1,5-a]pyrimidin-7-yl]phenyl}pyrrolidin-2-one], the values for the IC50 (in test [1]; with LoVo Colon cell line) were less than 1000 nM and less than 100 nM, respectively.

As for `O=C(c1cccs1)c1cnn2c(-c3ccc(F)c(N(C(=O)c4ccccc4Cl)C(=O)c4ccccc4Cl)c3)ccnc12` [Example 438, 2-Chloro-N-(2-chlorobenzoyl)-N-{2-fluoro-5-[3-(thien-2-ylcarbonyl)pyrazolo[1,5-a]pyrimidin-7-yl]phenyl}benzamide], the IC50 in test [1] is less than 1000 nM; with LoVo Colon cell line, less than 100 nM.

In the case of `O=C(Cc1cccnc1)Nc1cccc(-c2ccnc3c(C(=O)c4cccs4)cnn23)c1` [Example 439, 2-Pyridin-3-yl-N-{3-[3-(thien-2-ylcarbonyl)pyrazolo[1,5-a]pyrimidin-7-yl]phenyl}acetamide], the IC50 in test [1] is 1000 to 10000 nM; with LoVo Colon cell line, less than 100 nM.

Turning to `O=C(CCc1ccncc1)Nc1cccc(-c2ccnc3c(C(=O)c4cccs4)cnn23)c1` [Example 440, 3-Pyridin-4-yl-N-{3-[3-(thien-2-ylcarbonyl)pyrazolo[1,5-a]pyrimidin-7-yl]phenyl}propanamide], the IC50 fell in the range of 1000 to 10000 nM in test [1] and 100 to 1000 nM in the test with LoVo Colon cell line.

Take `O=C(Nc1cccc(-c2ccnc3c(C(=O)c4cccs4)cnn23)c1)c1cn[nH]c1` [Example 441, N-{3-[3-(Thien-2-ylcarbonyl)pyrazolo[1,5-a]pyrimidin-7-yl]phenyl}-1H-pyrazole-4-carboxamide]: the IC50 in test [1] fell in the range of 10000 to 50000 nM; in the test on LoVo Colon cell line, 1000 to 20000 nM.

With `O=C(O)CCC(=O)Nc1cccc(-c2ccnc3c(C(=O)c4cccs4)cnn23)c1` [Example 442, 4-Oxo-4-({3-[3-(thien-2-ylcarbonyl)pyrazolo[1,5-a]pyrimidin-7-yl]phenyl}amino)butanoic acid], the IC50 in test [1] lay in the range of 10000 to 50000 nM; with LoVo Colon cell line, 1000 to 20000 nM.

Consider `O=C(O)c1ccccc1C(=O)Nc1cccc(-c2ccnc3c(C(=O)c4cccs4)cnn23)c1` [Example 443, 2-[({3-[3-(Thien-2-ylcarbonyl)pyrazolo[1,5-a]pyrimidin-7-yl]phenyl}amino)carbonyl]benzoic acid], for which the IC50 in test [1] was in the range of 10000 to 50000 nM; in the test on LoVo Colon cell line it was 1000 to 20000 nM.

Regarding `O=C(O)CCCC(=O)Nc1cccc(-c2ccnc3c(C(=O)c4cccs4)cnn23)c1` [Example 444, 5-Oxo-5-({3-[3-(thien-2-ylcarbonyl)pyrazolo[1,5-a]pyrimidin-7-yl]phenyl}amino)pentanoic acid], the IC50 in test [1] lay in the range of 10000 to 50000 nM; in the test with LoVo Colon cell line, 1000 to 20000 nM.

Turning to `CC(CC(=O)O)CC(=O)Nc1cccc(-c2ccnc3c(C(=O)c4cccs4)cnn23)c1` (stereo not shown) [Example 445, 3-Methyl-5-oxo-5-({3-[3-(thien-2-ylcarbonyl)pyrazolo[1,5-a]pyrimidin-7-yl]phenyl}amino)pentanoic acid], the values for the IC50 (in test [1]; in the test on LoVo Colon cell line) were 10000 to 50000 nM and 1000 to 20000 nM, respectively.

In the case of `O=C(O)c1cc(Cl)c(Cl)cc1C(=O)Nc1cccc(-c2ccnc3c(C(=O)c4cccs4)cnn23)c1` [Example 446, 4,5-Dichloro-2-[({3-[3-(thien-2-ylcarbonyl)pyrazolo[1,5-a]pyrimidin-7-yl]phenyl}amino)carbonyl]benzoic acid], the IC50 in test [1] fell in the range of 10000 to 50000 nM; with LoVo Colon cell line, 1000 to 20000 nM.

Consider `CCCCCCCCCC(C)CNc1cccc(-c2ccnc3c(C(=O)c4cccs4)cnn23)c1` (stereo not shown) [Example 447, (7-{3-[(2-Methylundecyl)amino]phenyl}pyrazolo[1,5-a]pyrimidin-3-yl)(thien-2-yl)methanone], for which the figures for the IC50 (in test [1]; with LoVo Colon cell line) were 10000 to 50000 nM and 1000 to 20000 nM, respectively.

For `O=C(CCc1cccnc1)Nc1cccc(-c2ccnc3c(C(=O)c4cccs4)cnn23)c1` [Example 448, 3-Pyridin-3-yl-N-{3-[3-(thien-2-ylcarbonyl)pyrazolo[1,5-a]pyrimidin-7-yl]phenyl}propanamide], the figures for the IC50 (in test [1]; in the test on LoVo Colon cell line) were 10000 to 50000 nM and 100 to 1000 nM, respectively.

`O=C(CSc1ccncc1)Nc1cccc(-c2ccnc3c(C(=O)c4cccs4)cnn23)c1` [Example 449, 2-(Pyridin-4-ylthio)-N-{3-[3-(thien-2-ylcarbonyl)pyrazolo[1,5-a]pyrimidin-7-yl]phenyl}acetamide]: the IC50 in test [1] lay in the range of 10000 to 50000 nM; with LoVo Colon cell line it was 100 to 1000 nM.

In the case of `CN(C)c1ccc(-c2cccc(-c3ccnc4c(C(=O)c5cccs5)cnn34)c2)cc1` [Example 450, {7-[4′-(Dimethylamino)-1,1′-biphenyl-3-yl]pyrazolo[1,5-a]pyrimidin-3-yl}(thien-2-yl)methanone], the figures for the IC50 (in test [1]; with LoVo Colon cell line) were less than 1000 nM and less than 100 nM, respectively.

`Nc1cccc(-c2cccc(-c3ccnc4c(C(=O)c5cccs5)cnn34)c2)c1` [Example 451, [7-(3′-Amino-1,1′-biphenyl-3-yl)pyrazolo[1,5-a]pyrimidin-3-yl](thien-2-yl)methanone]: the IC50 in test [1] was less than 1000 nM; in the test on LoVo Colon cell line, 100 to 1000 nM.

Turning to `O=C(c1cccs1)c1cnn2c(-c3cccc(-c4ccc(CO)cc4)c3)ccnc12` [Example 452, {7-[4′-(Hydroxymethyl)-1,1′-biphenyl-3-yl]pyrazolo[1,5-a]pyrimidin-3-yl}(thien-2-yl)methanone], the IC50 in test [1] was less than 1000 nM; in the test on LoVo Colon cell line, less than 100 nM.

Regarding `CN(C)c1cccc(-c2cccc(-c3ccnc4c(C(=O)c5cccs5)cnn34)c2)c1` [Example 453, {7-[3′-(Dimethylamino)-1,1′-biphenyl-3-yl]pyrazolo[1,5-a]pyrimidin-3-yl}(thien-2-yl)methanone], the IC50 in test [1] was in the range of 1000 to 10000 nM; in the test on LoVo Colon cell line, 100 to 1000 nM.

As to `CN(C)c1ccc(-c2cc(-c3ccnc4c(C(=O)c5cccs5)cnn34)ccc2F)cc1` [Example 454, {7-[4′-(Dimethylamino)-6-fluoro-1,1′-biphenyl-3-yl]pyrazolo[1,5-a]pyrimidin-3-yl}(thien-2-yl)methanone], the IC50 was in the range of 1000 to 10000 nM in test [1] and 100 to 1000 nM with LoVo Colon cell line.

In the case of `O=C(c1cccs1)c1cnn2c(-c3ccc(F)c(-c4ccc(CO)cc4)c3)ccnc12` [Example 455, {7-[6-Fluoro-4′-(hydroxymethyl)-1,1′-biphenyl-3-yl]pyrazolo[1,5-a]pyrimidin-3-yl}(thien-2-yl)methanone], the IC50 in test [1] was in the range of 1000 to 10000 nM; in the test on LoVo Colon cell line, 100 to 1000 nM.

For `CCc1ccc(-c2cccc(-c3ccnc4c(C(=O)c5cccs5)cnn34)c2)cc1` [Example 456, [7-(4′-Ethyl-1,1′-biphenyl-3-yl)pyrazolo[1,5-a]pyrimidin-3-yl](thien-2-yl)methanone], the IC50 is less than 1000 nM in test [1] and less than 100 nM in the test on LoVo Colon cell line.
